Type in all cases: cell-based
In one assay the target is T1, human TLR7 (Homo sapiens, UniProt Q9NYK1).
T1 construct: host or cells: HEK-Blue cells (HEK293-derived reporter line)
T1 sequence (Q9NYK1 27-1049): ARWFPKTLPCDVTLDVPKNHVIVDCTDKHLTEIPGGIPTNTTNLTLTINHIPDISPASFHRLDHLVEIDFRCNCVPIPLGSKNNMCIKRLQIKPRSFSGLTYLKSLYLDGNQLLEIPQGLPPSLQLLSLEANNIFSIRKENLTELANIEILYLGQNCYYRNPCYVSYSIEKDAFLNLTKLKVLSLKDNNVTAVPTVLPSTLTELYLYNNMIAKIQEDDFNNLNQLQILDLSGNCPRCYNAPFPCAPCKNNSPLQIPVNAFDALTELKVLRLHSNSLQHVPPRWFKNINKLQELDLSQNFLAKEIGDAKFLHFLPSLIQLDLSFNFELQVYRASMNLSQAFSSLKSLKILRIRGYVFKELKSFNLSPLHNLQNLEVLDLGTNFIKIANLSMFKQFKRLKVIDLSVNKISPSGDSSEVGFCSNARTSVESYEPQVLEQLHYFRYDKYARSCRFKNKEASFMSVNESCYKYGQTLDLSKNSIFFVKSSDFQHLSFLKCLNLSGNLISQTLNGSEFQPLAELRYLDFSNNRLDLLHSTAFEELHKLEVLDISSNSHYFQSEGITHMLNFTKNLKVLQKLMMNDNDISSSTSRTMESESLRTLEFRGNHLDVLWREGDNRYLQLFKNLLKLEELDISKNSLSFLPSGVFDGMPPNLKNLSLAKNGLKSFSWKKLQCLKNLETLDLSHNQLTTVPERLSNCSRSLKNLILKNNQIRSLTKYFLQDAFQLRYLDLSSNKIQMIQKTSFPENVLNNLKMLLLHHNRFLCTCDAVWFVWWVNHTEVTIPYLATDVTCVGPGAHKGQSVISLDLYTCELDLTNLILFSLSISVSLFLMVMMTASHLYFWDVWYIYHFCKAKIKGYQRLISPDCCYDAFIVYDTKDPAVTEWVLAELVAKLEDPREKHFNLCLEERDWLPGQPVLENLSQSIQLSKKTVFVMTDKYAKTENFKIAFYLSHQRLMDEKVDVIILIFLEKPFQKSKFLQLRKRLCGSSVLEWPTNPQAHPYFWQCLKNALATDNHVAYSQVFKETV
Put plainly: TLR7 inhibition reporter assay (HEK-Blue cells, SEAP reporter, gardiquimod stimulation). The note with it: HEK-Blue cells overexpressing human TLR7, SEAP reporter, gardiquimod 7.5 μM. In short, it runs like this:
(§1)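 Cells seeded per well (15000 TLR7, 20,000 TLR8, 25,000 TLR9); compound added over 0.05 nM–50 μM for 30 min at room temperature; agonist added (TLR7 gardiquimod 7.5 μM, TLR8 R848 15.9 μM, TLR9 ODN2006 5 nM); 22 h at 37 °C; SEAP measured; percent inhibition calculated.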

The target of the next assay is T2, human TLR8 (Homo sapiens, UniProt Q9NR97).
T2 construct: host or cells: HEK-Blue cells (HEK293-derived reporter line)
T2 sequence (Q9NR97 27-1041): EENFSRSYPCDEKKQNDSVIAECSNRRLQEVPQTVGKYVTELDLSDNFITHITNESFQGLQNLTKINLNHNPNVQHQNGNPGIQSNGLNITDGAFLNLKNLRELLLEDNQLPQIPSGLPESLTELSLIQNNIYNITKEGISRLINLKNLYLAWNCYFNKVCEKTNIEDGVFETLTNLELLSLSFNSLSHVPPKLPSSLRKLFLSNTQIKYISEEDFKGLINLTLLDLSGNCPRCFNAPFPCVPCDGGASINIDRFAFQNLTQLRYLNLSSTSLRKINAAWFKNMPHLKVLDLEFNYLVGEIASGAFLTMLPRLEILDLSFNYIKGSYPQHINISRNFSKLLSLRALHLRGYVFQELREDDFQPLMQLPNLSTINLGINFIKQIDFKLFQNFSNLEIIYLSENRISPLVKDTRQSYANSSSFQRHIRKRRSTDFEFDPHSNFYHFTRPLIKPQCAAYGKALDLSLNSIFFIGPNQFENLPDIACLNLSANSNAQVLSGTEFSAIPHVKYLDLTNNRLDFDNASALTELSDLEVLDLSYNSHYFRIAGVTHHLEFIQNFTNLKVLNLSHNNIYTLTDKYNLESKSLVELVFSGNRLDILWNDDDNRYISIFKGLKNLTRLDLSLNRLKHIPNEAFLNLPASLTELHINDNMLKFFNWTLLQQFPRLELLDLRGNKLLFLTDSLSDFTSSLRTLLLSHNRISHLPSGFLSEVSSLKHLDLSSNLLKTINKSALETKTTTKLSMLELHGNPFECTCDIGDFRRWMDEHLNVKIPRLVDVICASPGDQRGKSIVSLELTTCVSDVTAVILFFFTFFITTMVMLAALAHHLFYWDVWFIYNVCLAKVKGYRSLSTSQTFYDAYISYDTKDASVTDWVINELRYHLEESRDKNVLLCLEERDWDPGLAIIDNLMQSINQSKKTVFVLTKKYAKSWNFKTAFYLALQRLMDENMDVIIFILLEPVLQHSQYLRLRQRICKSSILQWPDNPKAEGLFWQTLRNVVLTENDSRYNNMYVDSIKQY
Put plainly: TLR8 inhibition reporter assay (HEK-Blue cells, SEAP reporter, R848 stimulation). The conditions noted are these: HEK-Blue cells overexpressing human TLR8, SEAP reporter, R848 15.9 μM. In short, it runs like this:
as §1
(Reporter assays use an easily measured gene product as a stand-in for the process of interest.)

The target in another assay is T3, human TLR9 (Homo sapiens, UniProt Q9NR96).
T3 construct: host or cells: HEK-Blue cells (HEK293-derived reporter line)
T3 sequence (Q9NR96 26-1032): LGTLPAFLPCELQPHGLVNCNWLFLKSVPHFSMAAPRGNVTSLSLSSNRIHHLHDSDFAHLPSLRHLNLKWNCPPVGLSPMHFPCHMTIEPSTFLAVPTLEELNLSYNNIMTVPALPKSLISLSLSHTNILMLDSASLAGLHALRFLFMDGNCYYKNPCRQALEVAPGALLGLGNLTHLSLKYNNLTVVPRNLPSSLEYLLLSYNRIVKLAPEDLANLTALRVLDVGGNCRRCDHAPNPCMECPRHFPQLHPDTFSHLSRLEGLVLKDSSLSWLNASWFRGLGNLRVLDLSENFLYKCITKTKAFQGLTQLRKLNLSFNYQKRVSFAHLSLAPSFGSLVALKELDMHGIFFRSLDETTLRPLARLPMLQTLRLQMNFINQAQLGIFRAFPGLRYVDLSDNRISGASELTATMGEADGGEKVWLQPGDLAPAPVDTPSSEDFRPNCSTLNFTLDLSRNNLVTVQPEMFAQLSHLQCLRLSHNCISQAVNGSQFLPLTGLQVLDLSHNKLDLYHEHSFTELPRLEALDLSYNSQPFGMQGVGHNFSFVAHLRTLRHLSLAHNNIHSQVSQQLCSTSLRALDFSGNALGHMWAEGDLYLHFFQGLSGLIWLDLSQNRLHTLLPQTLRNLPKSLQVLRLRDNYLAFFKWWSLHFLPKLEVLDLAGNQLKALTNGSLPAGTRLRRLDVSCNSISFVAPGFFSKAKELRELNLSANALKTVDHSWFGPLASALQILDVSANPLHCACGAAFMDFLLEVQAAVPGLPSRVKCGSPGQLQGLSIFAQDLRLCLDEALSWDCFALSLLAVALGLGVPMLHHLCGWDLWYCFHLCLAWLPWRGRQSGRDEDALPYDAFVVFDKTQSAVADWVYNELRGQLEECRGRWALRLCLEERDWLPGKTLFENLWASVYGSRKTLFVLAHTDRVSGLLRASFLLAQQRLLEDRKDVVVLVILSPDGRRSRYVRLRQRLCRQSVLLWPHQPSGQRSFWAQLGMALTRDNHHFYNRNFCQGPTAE
Put plainly: TLR9 inhibition reporter assay (HEK-Blue cells, SEAP reporter, ODN2006 stimulation). The note with it: HEK-Blue cells overexpressing human TLR9, SEAP reporter, ODN2006 5 nM. In short, it runs like this:
as §1

A value given as a limit tells only on which side of the number the result lay.

For orientation: IC50 means the concentration at which inhibition is half-maximal.

As to `Cc1cccc2cc(CN3CCC(c4ccc5[nH]c(-c6ccnc7[nH]ncc67)c(C(C)C)c5c4)CC3)c(Cl)nc12` [Example 922, 2-chloro-3-((4-(3-isopropyl-2-(1H-pyrazolo[3,4-b]pyridin-4-yl)-1H-indol-5-yl)piperidin-1-yl)methyl)-8-methylquinoline], the IC50 against human TLR7, on human TLR8 and on human TLR9 was 1000 to 50000 nM in each case.
As for `Cc1ccnc2c1c(-c1[nH]c3ccc(C4CCN(CC(=O)N(C)C)CC4)cc3c1C(C)C)cn2C` [Example 285, 2-(4-(2-(1,4-dimethyl-1H-pyrrolo[2,3-b]pyridin-3-yl)-3-isopropyl-1H-indol-5-yl)piperidin-1-yl)-N,N-dimethylacetamide], the values for the IC50 at human TLR7, at human TLR8 and at human TLR9 were below 100 nM, below 100 nM and 1000 to 50000 nM, respectively.
Turning to `Cc1cc(-c2[nH]c3ccc(C4CCN(C(=O)CN5CCC(F)(F)C5)CC4)cc3c2C(C)C)cn2nnnc12` [Example 478, 2-(3,3-difluoropyrrolidin-1-yl)-1-(4-(3-isopropyl-2-(8-methyltetrazolo[1,5-a]pyridin-6-yl)-1H-indol-5-yl)piperidin-1-yl)ethan-1-one], the IC50 at human TLR7 is below 100 nM; at human TLR8 it was 100 to 1000 nM; on human TLR9, above 50000 nM.
In the case of `Cc1cc(-c2[nH]c3ccc(C4CCN(C(=O)C5CC(=O)N(C)C5)CC4)cc3c2C(C)C)c2ccccc2n1` (stereo not drawn) [Example 638, 4-(4-(3-isopropyl-2-(2-methylquinolin-4-yl)-1H-indol-5-yl)piperidine-1-carbonyl)-1-methylpyrrolidin-2-one], the values for the IC50 against human TLR7, against human TLR8 and on human TLR9 were below 100 nM, 100 to 1000 nM and above 50000 nM, respectively.
The like results for `CCc1c(-c2ccnc3[nH]ncc23)[nH]c2ccc(C3CCN(CC(N)=O)CC3)cc12` [Example 289, 2-(4-(3-ethyl-2-(1H-pyrazolo[3,4-b]pyridin-4-yl)-1H-indol-5-yl)piperidin-1-yl)acetamide] were, in that order, below 100 nM, below 100 nM and 1000 to 50000 nM.
Consider `COc1ncc(CN2CCC(c3ccc4[nH]c(-c5ccnc6[nH]ncc56)c(C(C)C)c4c3)CC2)cn1` [Example 909, 4-(3-isopropyl-5-(1-((2-methoxypyrimidin-5-yl)methyl)piperidin-4-yl)-1H-indol-2-yl)-1H-pyrazolo[3,4-b]pyridine], for which the IC50 at human TLR7 is below 100 nM; against human TLR8 it was below 100 nM; against human TLR9 it was 1000 to 50000 nM.
Consider `CCOc1cc(-c2[nH]c3ccc(C4CCN(CC(=O)N(C)C)CC4)cc3c2C(C)C)cc2nc(C)nn12` [Example 404, 2-(4-(2-(5-ethoxy-2-methyl-[1,2,4]triazolo[1,5-a]pyridin-7-yl)-3-isopropyl-1H-indol-5-yl)piperidin-1-yl)-N,N-dimethylacetamide], for which the figures for the IC50 at human TLR7, against human TLR8 and on human TLR9 were below 100 nM, below 100 nM and 1000 to 50000 nM, respectively.
Consider `COc1c(C)c(-c2[nH]c3ccc(C4CCN(CC(=O)N(C)C)CC4)cc3c2C(C)C)nn2ncnc12` [Example 282, 2-(4-(3-isopropyl-2-(8-methoxy-7-methyl-[1,2,4]triazolo[1,5-b]pyridazin-6-yl)-1H-indol-5-yl)piperidin-1-yl)-N,N-dimethylacetamide], for which the IC50 was below 100 nM against human TLR7, below 100 nM against human TLR8 and 1000 to 50000 nM on human TLR9.
`CCc1c(-c2ccnc3cnn(C)c23)[nH]c2ccc(C3CCNCC3)cc12` [Example 41, 7-(3-ethyl-5-(piperidin-4-yl)-1H-indol-2-yl)-1-methyl-1H-pyrazolo[4,3-b]pyridine]: the 50% inhibitory concentration (IC50) on human TLR7 lay in the range of 100 to 1000 nM; on human TLR8, 100 to 1000 nM; on human TLR9, 1000 to 50000 nM.
On to `CC(C)c1c(-c2cc(Cl)c3ncccc3c2)[nH]c2ccc(C3CCN(CC(C)(C)O)CC3)cc12` [Example 767, 1-(4-(2-(8-chloroquinolin-6-yl)-3-isopropyl-1H-indol-5-yl)piperidin-1-yl)-2-methylpropan-2-ol], for which the values for the IC50 against human TLR7, on human TLR8 and at human TLR9 were below 100 nM, below 100 nM and 1000 to 50000 nM, respectively.
As to `CC(C)NC(=O)CN1CCC(c2ccc3[nH]c(-c4ccc5nccn5c4)c(C(C)C)c3c2)CC1` [Example 402, 2-(4-(2-(imidazo[1,2-a]pyridin-6-yl)-3-isopropyl-1H-indol-5-yl)piperidin-1-yl)-N-isopropylacetamide], the IC50 on human TLR7 is below 100 nM; against human TLR8 it was 100 to 1000 nM; against human TLR9 it was 1000 to 50000 nM.
For `CC(C)(O)CC(=O)N1CCC(c2ccc3[nH]c(-c4cc(F)c5nccn5c4)c(CC(F)F)c3c2)CC1` [Example 606, 1-(4-(3-(2,2-difluoroethyl)-2-(8-fluoroimidazo[1,2-a]pyridin-6-yl)-1H-indol-5-yl)piperidin-1-yl)-3-hydroxy-3-methylbutan-1-one], the results for the IC50 at human TLR7, at human TLR8 and against human TLR9 were 100 to 1000 nM, above 3130 nM and 1000 to 50000 nM, respectively.

(Values after US11739098B2 (BRISTOL-MYERS SQUIBB COMPANY, priority 2017, dated 2023).)
